{
  "source": "patent US6582952B1",
  "about": "(priority 1997, dated 2003)",
  "tested_on": "Bacillus licheniformis",
  "note": "“Also recorded” adds a separate entry of the source.",
  "data": [
    {"smiles": "Nc1n[nH]c(=O)[nH]1", "note": "[amine, 5-amino-1,2,4-triazole-3-one]", "values": [
      {"measurement": "stability of the amine formed in the incubation mixture", "value": "does not undergo any subsequent transformation; also recorded: stable"}
    ]}
  ]
}
